Test system: 349418-098-R-PDC spheroids, viability, % test/control
Test: Anticancer human tumor 349418-098-R-PDC patient-derived lung adenocarcinoma cell line growth inhibition [IpAb]
Conditions: spheroids with HUVEC and MSC; for IC50: curve of first compound; for viability, T/C: stronger effect = lower value; active = viability on the fitted dose curve at most 10% of control; inactive = the rest
Method in brief: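 Combinations with ipatasertib or abemaciclib were tested on tumour spheroids holding HUVEC (25%) and MSC (15%) alongside 60% malignant cells. Top concentration was at or near clinical Cmax (10 microM if undefined), descending in half-log steps.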

[1] = second compound 0.1 µM, first compound 0.0316 µM
[2] = second compound 0.1 µM, first compound 0.1 µM
[3] = second compound 0.1 µM, first compound 0.316 µM
[4] = second compound 0.1 µM, first compound 1 µM
[5] = second compound 0.1 µM, first compound 3.16 µM
[6] = second compound 0.1 µM, first compound 10 µM
[7] = second compound 0.316 µM, first compound 0.0316 µM
[8] = second compound 0.316 µM, first compound 0.1 µM
[9] = second compound 0.316 µM, first compound 0.316 µM
[10] = second compound 0.316 µM, first compound 1 µM
[11] = second compound 0.316 µM, first compound 3.16 µM
[12] = second compound 0.316 µM, first compound 10 µM
[13] = second compound 1 µM, first compound 0.0316 µM
[14] = second compound 1 µM, first compound 0.1 µM
[15] = second compound 1 µM, first compound 0.316 µM
[16] = second compound 1 µM, first compound 1 µM
[17] = second compound 1 µM, first compound 3.16 µM
[18] = second compound 1 µM, first compound 10 µM
[19] = second compound 0.01 µM, first compound 0.0316 µM
[20] = second compound 0.01 µM, first compound 0.1 µM
[21] = second compound 0.01 µM, first compound 0.316 µM
[22] = second compound 0.01 µM, first compound 1 µM
[23] = second compound 0.01 µM, first compound 3.16 µM
[24] = second compound 0.01 µM, first compound 10 µM
[25] = second compound 0.0316 µM, first compound 0.0316 µM
[26] = second compound 0.0316 µM, first compound 0.1 µM
[27] = second compound 0.0316 µM, first compound 0.316 µM
[28] = second compound 0.0316 µM, first compound 1 µM
[29] = second compound 0.0316 µM, first compound 3.16 µM
[30] = second compound 0.0316 µM, first compound 10 µM
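Also: spheroids exposed to compounds for 7 days.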

Cn1cnc2c(F)c(Nc3ccc(Br)cc3Cl)c(C(=O)NOCCO)cc21 + CC(C)NCC(C(=O)N1CCN(c2ncnc3c2C(C)CC3O)CC1)c1ccc(Cl)cc1
< 9.49 nM: IC50 (second compound 0.1 µM) | IC50 (second compound 0.316 µM) | IC50 (second compound 1 µM) | IC50 (second compound 3.16 µM) | IC50 (second compound 10 µM)
inactive: viability, T/C (second compound 0.1 µM, first compound 0.00949 µM) 46.7% | viability, T/C (second compound 0.1 µM, first compound 0.03 µM) 38.4% | viability, T/C (second compound 0.1 µM, first compound 0.0949 µM) 41.8% | viability, T/C (second compound 0.1 µM, first compound 0.3 µM) 33.6% | viability, T/C (second compound 0.1 µM, first compound 0.949 µM) 18.8% | viability, T/C (second compound 0.316 µM, first compound 0.00949 µM) 25.7% | viability, T/C (second compound 0.316 µM, first compound 0.03 µM) 24.6% | viability, T/C (second compound 0.316 µM, first compound 0.0949 µM) 21.4% | viability, T/C (second compound 0.316 µM, first compound 0.3 µM) 18.8% | viability, T/C (second compound 0.316 µM, first compound 0.949 µM) 10.2% | viability, T/C (second compound 1 µM, first compound 0.00949 µM) 12.5% | viability, T/C (second compound 1 µM, first compound 0.03 µM) 10.5%
active: viability, T/C (second compound 0.1 µM, first compound 3 µM) 8.1% | viability, T/C (second compound 0.316 µM, first compound 3 µM) 7.06% | viability, T/C (second compound 1 µM, first compound 0.0949 µM) 10.3% | viability, T/C (second compound 1 µM, first compound 0.3 µM) 7.91% | viability, T/C (second compound 1 µM, first compound 0.949 µM) 6.83% | viability, T/C (second compound 1 µM, first compound 3 µM) 5.21% | viability, T/C (second compound 3.16 µM, first compound 0.00949 µM) 7.25% | viability, T/C (second compound 3.16 µM, first compound 0.03 µM) 6.51% | viability, T/C (second compound 3.16 µM, first compound 0.0949 µM) 5.52% | viability, T/C (second compound 3.16 µM, first compound 0.3 µM) 5.93% | viability, T/C (second compound 3.16 µM, first compound 0.949 µM) 4.94% | viability, T/C (second compound 3.16 µM, first compound 3 µM) 3.63% | viability, T/C (second compound 10 µM, first compound 0.00949 µM) 5.59% | viability, T/C (second compound 10 µM, first compound 0.03 µM) 5.09% | viability, T/C (second compound 10 µM, first compound 0.0949 µM) 4.7% | viability, T/C (second compound 10 µM, first compound 0.3 µM) 3.85% | viability, T/C (second compound 10 µM, first compound 0.949 µM) 3.8% | viability, T/C (second compound 10 µM, first compound 3 µM) 3.14%

CCCS(=O)(=O)Nc1ccc(F)c(C(=O)c2c[nH]c3ncc(-c4ccc(Cl)cc4)cc23)c1F + CC(C)NCC(C(=O)N1CCN(c2ncnc3c2C(C)CC3O)CC1)c1ccc(Cl)cc1
inactive: viability, T/C [1] 56.4% | viability, T/C [2] 48.1% | viability, T/C [3] 42.4% | viability, T/C [4] 38.4% | viability, T/C [5] 33.5% | viability, T/C [6] 15.7% | viability, T/C [7] 32.9% | viability, T/C [8] 29.4% | viability, T/C [9] 29.8% | viability, T/C [10] 21.7% | viability, T/C [11] 21.4% | viability, T/C [12] 11.2% | viability, T/C [13] 19.1% | viability, T/C [14] 16.6% | viability, T/C [15] 11.9% | viability, T/C [16] 10.1% | viability, T/C (second compound 3.16 µM, first compound 0.0316 µM) 9.81%
106 nM: IC50 (second compound 0.1 µM)
active: viability, T/C [17] 11% | viability, T/C [18] 7.7% | viability, T/C (second compound 3.16 µM, first compound 0.1 µM) 7.85% | viability, T/C (second compound 3.16 µM, first compound 0.316 µM) 7.36% | viability, T/C (second compound 3.16 µM, first compound 1 µM) 6.91% | viability, T/C (second compound 3.16 µM, first compound 3.16 µM) 7.18% | viability, T/C (second compound 3.16 µM, first compound 10 µM) 6.15% | viability, T/C (second compound 10 µM, first compound 0.0316 µM) 6.76% | viability, T/C (second compound 10 µM, first compound 0.1 µM) 6.33% | viability, T/C (second compound 10 µM, first compound 0.316 µM) 5.46% | viability, T/C (second compound 10 µM, first compound 1 µM) 5.62% | viability, T/C (second compound 10 µM, first compound 3.16 µM) 5.53% | viability, T/C (second compound 10 µM, first compound 10 µM) 4.47%
< 31.6 nM: IC50 (second compound 0.316 µM) | IC50 (second compound 1 µM) | IC50 (second compound 3.16 µM) | IC50 (second compound 10 µM)

CC1(C)CCC(CN2CCN(c3ccc(C(=O)NS(=O)(=O)c4ccc(NCC5CCOCC5)c([N+](=O)[O-])c4)c(Oc4cnc5[nH]ccc5c4)c3)CC2)=C(c2ccc(Cl)cc2)C1 + CCN1CCN(Cc2ccc(Nc3ncc(F)c(-c4cc(F)c5nc(C)n(C(C)C)c5c4)n3)nc2)CC1
inactive: viability, T/C [19] 102% | viability, T/C [20] 75% | viability, T/C [21] 68.5% | viability, T/C [22] 67.8% | viability, T/C [23] 42.9% | viability, T/C [25] 60.8% | viability, T/C [26] 56.1% | viability, T/C [27] 52.5% | viability, T/C [28] 55.4% | viability, T/C [29] 44.1% | viability, T/C [1] 29.8% | viability, T/C [2] 32.8% | viability, T/C [3] 29% | viability, T/C [4] 26.3% | viability, T/C [5] 24.2% | viability, T/C [6] 6.59% | viability, T/C [7] 20.6% | viability, T/C [8] 19.6% | viability, T/C [9] 21.5% | viability, T/C [10] 18.6% | viability, T/C [11] 20.6% | viability, T/C [12] 4.86% | viability, T/C [13] 16.7% | viability, T/C [14] 18.6% | viability, T/C [15] 16% | viability, T/C [16] 17.9% | viability, T/C [17] 17% | viability, T/C [18] 4.09%
active: viability, T/C [24] 6.47% | viability, T/C [30] 6.96%
< 31.6 nM: IC50 (second compound 0.1 µM) | IC50 (second compound 0.316 µM) | IC50 (second compound 1 µM)
1810 nM: IC50 (second compound 0.01 µM)
1640 nM: IC50 (second compound 0.0316 µM)

CCCS(=O)(=O)Nc1ccc(F)c(C(=O)c2c[nH]c3ncc(-c4ccc(Cl)cc4)cc23)c1F + CCN1CCN(Cc2ccc(Nc3ncc(F)c(-c4cc(F)c5nc(C)n(C(C)C)c5c4)n3)nc2)CC1
91.3 nM: IC50 (second compound 0.01 µM)
inactive: viability, T/C [19] 59.7% | viability, T/C [20] 50.3% | viability, T/C [21] 32.9% | viability, T/C [22] 37.3% | viability, T/C [23] 27.6% | viability, T/C [24] 16.7% | viability, T/C [25] 34.7% | viability, T/C [26] 23.7% | viability, T/C [27] 27.6% | viability, T/C [28] 28.3% | viability, T/C [29] 20.8% | viability, T/C [30] 11.4% | viability, T/C [1] 18.8% | viability, T/C [2] 17.6% | viability, T/C [3] 17.3% | viability, T/C [4] 17.2% | viability, T/C [5] 14.2% | viability, T/C [6] 8.97% | viability, T/C [7] 14.3% | viability, T/C [8] 13.6% | viability, T/C [9] 12.5% | viability, T/C [10] 10.8% | viability, T/C [11] 10.5% | viability, T/C [13] 14.1% | viability, T/C [14] 11.8% | viability, T/C [15] 11.1%
active: viability, T/C [12] 9.39% | viability, T/C [16] 9.39% | viability, T/C [17] 9.24% | viability, T/C [18] 7.05%
< 31.6 nM: IC50 (second compound 0.0316 µM) | IC50 (second compound 0.1 µM) | IC50 (second compound 0.316 µM) | IC50 (second compound 1 µM)

— PubChem BioAssay AID2060340 (Molecular Pharmacology Branch, DTP, NCI, 2025)
